Measurements published in BindingDB's records for doi:10.1021/jm00051a003 (University of Washington, 1995).

assay: Tested for the binding affinity against the Delta opioid receptor in guinea pig brain using [3H]DPDPE

| SMILES | IC50 [nM] |
| --- | --- |
| Oc1ccc2c3c1OC1[C@@H](OCc4ccc5ccccc5c4)CCC4(O)C(C2)N(CC2CC2)CCC314 (stereo not given in full) | 20 |
| Oc1ccc2c3c1OC1[C@H](OCc4ccc5ccccc5c4)CCC4(O)C(C2)N(CC2CC2)CCC314 (stereo not given in full) | 25 |
| Oc1ccc2c3c1OC1[C@@H](OCc4cccc5ccccc45)CCC4(O)C(C2)N(CC2CC2)CCC314 (stereo not given in full) | 6.6 |
| Oc1ccc2c3c1OC1[C@@H](OCc4ccc(-c5ccccc5)cc4)CCC4(O)C(C2)N(CC2CC2)CCC314 (stereo not given in full) | 19 |
| Oc1ccc2c3c1OC1[C@@H](OCc4ccccc4)CCC4(O)C(C2)N(CC2CC2)CCC314 (stereo not given in full) | 1.4 |
| Oc1ccc2c3c1OC1[C@H](OCc4cccc5ccccc45)CCC4(O)C(C2)N(CC2CC2)CCC314 (stereo not given in full) | 5.5 |
| Oc1ccc2c3c1OC1[C@@H](OCc4c5ccccc5cc5ccccc45)CCC4(O)C(C2)N(CC2CC2)CCC314 (stereo not given in full) | 36 |
| Oc1ccc2c3c1OC1[C@H](OCc4ccc(-c5ccccc5)cc4)CCC4(O)C(C2)N(CC2CC2)CCC314 (stereo not given in full) | 11 |
| Oc1ccc2c3c1OC1[C@H](OCc4c5ccccc5cc5ccccc45)CCC4(O)C(C2)N(CC2CC2)CCC314 (stereo not given in full) | 48 |
| O=C(COC1CCC2(O)C3Cc4ccc(O)c5c4C2(CCN3CC2CC2)C1O5)C1[C@H]2C[C@@H]3C[C@@H](C[C@H]1C3)C2 (stereo partly drawn) [17-(cyclopropylmethyl)-4,5alpha-epoxy-3,14-dihydroxy-6beta-morphinanyl 2-adamantyl-2-oxoethylether] | 30 |
